According to patent US12344610B2, “APOL1 inhibitors and methods of use” (Maze Therapeutics, Inc., priority 2022, dated 2025):
pEC50: −log10 of the molar value.

System: HEK293 clonal cell line overexpressing APOL1 G1
Test: APOL1 G1 HEK293 cell rescue assay (Example B3)
Type: cell-based
Conditions: geometric mean of at least 2 runs, † = single run, ¥ = concentration at 50% rescue estimated (no sigmoidal curve)
In short: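 HEK293 clonal line overexpressing APOL1 G1; EC50 is half-maximal reversal of APOL1-induced cell death. Values are the geometric mean of ≥2 runs on separate days, each run the average of duplicate wells. Where no sigmoidal curve could be fitted, the concentration giving 50% rescue was estimated.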

[1] = Homo sapiens, HEK293, HEK293 clonal line overexpressing APOL1 G1
[2] = HEK293 clonal line overexpressing APOL1 G1

Compound | pEC50 [1] | pEC50 [2]
C[C@@H](COc1ccc(S(C)(=O)=O)cc1)N1CCC2(CC1)C(=O)Nc1ccc(Cl)cc12 (single isomer, unassigned) [Compound 10] | 6.35 | 
C[C@@H](COc1ccc(S(C)(=O)=O)cc1)N1CCC2(CC1)C(=O)Nc1ccccc12 (single isomer, unassigned) [Compound 12] | 5.94 | 
C[C@@H](CN1CCC2(CC1)C(=O)Nc1ccccc12)Oc1ccc(S(C)(=O)=O)cc1 (single isomer, unassigned) [Compound 13] | < 4.52 | 
O=C1NCC2c3ccc(OCCN4CCC5(CC4)C(=O)Nc4ccc(Cl)cc45)cc3CCN12 (single isomer, unassigned) [Compound 116, (S) or (R)-5-chloro-1′-[2-({3-oxo-1H,2H,3H,5H,6H,10bH-imidazo[4,3-a]isoquinolin-8-yl}oxy)ethyl]-1,2-dihydrospiro[indole-3,4′-piperidin]-2-one] | 6.63 | 
O=C1NCC2c3ccc(OCCN4CCC5(CC4)C(=O)Nc4ccc(Cl)cc45)cc3CCN12 (single isomer, unassigned) [Compound 117, (R) or (S)-5-chloro-1′-[2-({3-oxo-1H,2H,3H,5H,6H,10bH-imidazo[4,3-a]isoquinolin-8-yl}oxy)ethyl]-1,2-dihydrospiro[indole-3,4′-piperidin]-2-one] |  | 6.76
N#Cc1ccc2c(c1)C1(CCN(CCOc3ccc4c(c3)CCN3C(=O)NCC43)CC1)C(=O)N2 (single isomer, unassigned) [Compound 120, (R) or (S)-2-oxo-1′-[2-({3-oxo-1H,2H,3H,5H,6H,10bH-imidazo[4,3-a]isoquinolin-8-yl}oxy)ethyl]-1,2-dihydrospiro[indole-3,4′-piperidine]-5-carbonitrile] |  | < 5.28
O=C1CCC2c3ccc(OCCN4CCC5(CC4)C(=O)Nc4ccc(Cl)cc45)cc3CCN12 (single isomer, unassigned) [Compound 122, (S) or (R)-5-chloro-1′-[2-({3-oxo-1H,2H,3H,5H,6H,10bH-pyrrolo[2,1-a]isoquinolin-8-yl}oxy)ethyl]-1,2-dihydrospiro[indole-3,4′-piperidin]-2-one] | 6.73 | 
O=C1CCC2c3ccc(OCCN4CCC5(CC4)C(=O)Nc4ccc(Cl)cc45)cc3CCN12 (single isomer, unassigned) [Compound 123, (R) or (S)-5-chloro-1′-[2-({3-oxo-1H,2H,3H,5H,6H,10bH-pyrrolo[2,1-a]isoquinolin-8-yl}oxy)ethyl]-1,2-dihydrospiro[indole-3,4′-piperidin]-2-one] |  | 6.63
CC(c1ccc(OCCN2CCC3(CC2)C(=O)Nc2ccc(C#N)cc23)cc1)S(C)(=O)=O (single isomer, unassigned) [Compound 134, (S) or (R)-1′-{2-[4-(1-methanesulfonylethyl)phenoxy]ethyl}-2-oxo-1,2-dihydrospiro[indole-3,4′-piperidine]-5-carbonitrile] | 6.00 | 
CC(c1ccc(OCCN2CCC3(CC2)C(=O)Nc2ccc(C#N)cc23)cc1)S(C)(=O)=O (single isomer, unassigned) [Compound 135, (R) or (S)-1′-{2-[4-(1-methanesulfonylethyl)phenoxy]ethyl}-2-oxo-1,2-dihydrospiro[indole-3,4′-piperidine]-5-carbonitrile] |  | 5.94
CC(c1c(F)cc(OCCN2CCC3(CC2)C(=O)Nc2ccc(C#N)cc23)cc1F)S(C)(=O)=O (single isomer, unassigned) [Compound 138, (S) or (R)-1′-{2-[3,5-difluoro-4-(1-methanesulfonylethyl)phenoxy]ethyl}-2-oxo-1,2-dihydrospiro[indole-3,4′-piperidine]-5-carbonitrile] | 6.60 | 
CC(c1c(F)cc(OCCN2CCC3(CC2)C(=O)Nc2ccc(C#N)cc23)cc1F)S(C)(=O)=O (single isomer, unassigned) [Compound 139, (R) or (S)-1′-{2-[3,5-difluoro-4-(1-methanesulfonylethyl)phenoxy]ethyl}-2-oxo-1,2-dihydrospiro[indole-3,4′-piperidine]-5-carbonitrile] |  | 6.42
CC(c1c(F)cc(OCCN2CCC3(CC2)C(=O)Nc2ccc(Cl)cc23)cc1F)S(C)(=O)=O (single isomer, unassigned) [Compound 142, (S) or (R)-5-chloro-1′-{2-[3,5-difluoro-4-(1-methanesulfonylethyl)phenoxy]ethyl}-1,2-dihydrospiro[indole-3,4′-piperidin]-2-one] | 6.72 | 
CC(c1c(F)cc(OCCN2CCC3(CC2)C(=O)Nc2ccc(Cl)cc23)cc1F)S(C)(=O)=O (single isomer, unassigned) [Compound 143, (R) or (S)-5-chloro-1′-{2-[3,5-difluoro-4-(1-methanesulfonylethyl)phenoxy]ethyl}-1,2-dihydrospiro[indole-3,4′-piperidin]-2-one] |  | 6.90
CN=S(C)(=O)c1ccc(OCCN2CCC3(CC2)C(=O)Nc2ccc(Cl)cc23)cc1 (single isomer, unassigned) [Compound 148, (S) or (R)-5-chloro-1′-(2-{4-[methyl(methylimino)oxo-λ^6-sulfanyl]phenoxy}ethyl)-1,2-dihydrospiro[indole-3,4′-piperidin]-2-one] | 6.55 | 
CN=S(C)(=O)c1ccc(OCCN2CCC3(CC2)C(=O)Nc2ccc(Cl)cc23)cc1 (single isomer, unassigned) [Compound 149, (R) or (S)-5-chloro-1′-(2-{4-[methyl(methylimino)oxo-λ^6-sulfanyl]phenoxy}ethyl)-1,2-dihydrospiro[indole-3,4′-piperidin]-2-one] |  | 6.61
CN=S(C)(=O)c1ccc(OCCN2CCC3(CC2)C(=O)Nc2ccc(C#N)cc23)cc1 (single isomer, unassigned) [Compound 151, (S) or (R)-1′-(2-{4-[methyl(methylimino)oxo-λ^6-sulfanyl]phenoxy}ethyl)-2-oxo-1,2-dihydrospiro[indole-3,4′-piperidine]-5-carbonitrile] | ~5.60 | 
CN=S(C)(=O)c1ccc(OCCN2CCC3(CC2)C(=O)Nc2ccc(C#N)cc23)cc1 (single isomer, unassigned) [Compound 152, (R) or (S)-1′-(2-{4-[methyl(methylimino)oxo-λ^6-sulfanyl]phenoxy}ethyl)-2-oxo-1,2-dihydrospiro[indole-3,4′-piperidine]-5-carbonitrile] |  | < 5.38
O=C1Nc2ccc(Cl)cc2C12CCN(CCOc1ccc(C3CCCS3(=O)=O)cc1)CC2 (single isomer, unassigned) [Compound 176, (S) or (R)-2-[4-(2-{5-chloro-2-oxo-1,2-dihydrospiro[indole-3,4′-piperidin]-1′-yl}ethoxy)phenyl]-1λ^6-thiolane-1,1-dione] | 6.80 | 
O=C1Nc2ccc(Cl)cc2C12CCN(CCOc1ccc(C3CCCS3(=O)=O)cc1)CC2 (single isomer, unassigned) [Compound 177, (R) or (S)-2-[4-(2-{5-chloro-2-oxo-1,2-dihydrospiro[indole-3,4′-piperidin]-1′-yl}ethoxy)phenyl]-1λ^6-thiolane-1,1-dione] |  | 6.88
CS(=O)(=O)c1ccc(OCCN2CCC3(CC2)C(=O)Nc2c(C#N)cc(Cl)cc23)cc1 [Compound 9, 5-chloro-1′-[2-(4-methanesulfonylphenoxy)ethyl]-2-oxo-1,2-dihydrospiro[indole-3,4′-piperidine]-7-carbonitrile] | ~4.94 | 
CS(=O)(=O)CCCn1ncc2cc(OCCN3CCC4(CC3)C(=O)Nc3ccc(Cl)cc34)ccc21 [Compound 14, 5-chloro-1′-(2-{[1-(3-methanesulfonylpropyl)-1H-indazol-5-yl]oxy}ethyl)-1,2-dihydrospiro[indole-3,4′-piperidin]-2-one] | 6.32 | 
O=C1Nc2ccc(Cl)cc2C12CCN(CCOc1ccc3c(cnn3C3COC3)c1)CC2 [Compound 15, 5-chloro-1′-(2-{[1-(oxetan-3-yl)-1H-indazol-5-yl]oxy}ethyl)-1,2-dihydrospiro[indole-3,4′-piperidin]-2-one] | 6.55 | 
CC(C)n1ncc2cc(OCCN3CCC4(CC3)C(=O)Nc3ccc(Cl)cc34)ccc21 [Compound 16, 5-chloro-1′-(2-{[1-(propan-2-yl)-1H-indazol-5-yl]oxy}ethyl)-1,2-dihydrospiro[indole-3,4′-piperidin]-2-one] | 6.53 | 
O=C1Nc2ccc(Cl)cc2C12CCN(CCOc1ccc(S(=O)(=O)[C@H]3C[C@@H](O)C3)cc1)CC2 [Compound 17, 5-chloro-1′-[2-(4-{[(cis)-3-hydroxycyclobutyl]sulfonyl}phenoxy)ethyl]-1,2-dihydrospiro[indole-3,4′-piperidin]-2-one] | 6.80 | 
O=C1CCc2cc(OCCN3CCC4(CC3)C(=O)Nc3ccc(Cl)cc34)ccc2N1C1COC1 [Compound 99, 5-chloro-1′-(2-{[1-(oxetan-3-yl)-2-oxo-1,2,3,4-tetrahydroquinolin-6-yl]oxy}ethyl)-1,2-dihydrospiro[indole-3,4′-piperidin]-2-one] | 6.69 | 
CS(=O)(=O)c1ccc(OCCN2CCC3(CC2)C(=O)Nc2ccc(C#N)cc23)cc1C(F)F [Compound 100, 1′-{2-[3-(difluoromethyl)-4-methanesulfonylphenoxy]ethyl}-2-oxo-1,2-dihydrospiro[indole-3,4′-piperidine]-5-carbonitrile] | 6.87 | 
CS(=O)(=O)C1(c2ccc(OCCN3CCC4(CC3)C(=O)Nc3ccc(C#N)cc34)cc2)CC1 [Compound 101, 1′-{2-[4-(1-methanesulfonylcyclopropyl)phenoxy]ethyl}-2-oxo-1,2-dihydrospiro[indole-3,4′-piperidine]-5-carbonitrile] | 6.61 | 
CS(=O)(=O)C1(c2ccc(OCCN3CCC4(CC3)C(=O)Nc3ccc(Cl)cc34)cc2)CC1 [Compound 102, 5-chloro-1′-{2-[4-(1-methanesulfonylcyclopropyl)phenoxy]ethyl}-1,2-dihydrospiro[indole-3,4′-piperidin]-2-one] | 6.95 | 
